Reference: ChEMBL document CHEMBL4130396, “Bistinospinosides A and B, Dimeric Clerodane Diterpene Glycosides from Tinospora sagittata” (J Nat Prod, 2017)
Positions of bridges follow the written chain, without caps; N, C: chain ends. Non-standard residues stand in square brackets, D forms with d. Residues, ends and D or L forms follow the SMILES beside them. *: point of attachment. X1 = CC[C@H](C)CCCCC(=O)*; Dab = NCC[C@H](N)C(=O)O

Test system: J774.1
Experiment: Antiinflammatory activity in mouse J774.1 cells assessed as inhibition of LPS/[…]-induced NO production after 48 hrs by Griess assay
Assay type: functional, cell-based
Settings: J774.1, 48 h

IC50 | SMILES
> 50 µM | C[C@@]12C[C@@H](C3=C[C@@H]4O[C@H]3[C@H]3[C@H]5OC(=O)[C@@](O[C@@H]6O[C@H](CO)[C@@H](O)[C@H](O)[C@H]6O)([C@H]34)[C@]3(C)CC[C@H]4C(=O)O[C@H](c6ccoc6)C[C@@]4(C)[C@H]53)OC(=O)[C@@H]1CC[C@]1(C)[C@H]2[C@H]2C=C[C@]1(O[C@@H]1O[C@H](CO)[C@@H](O)[C@H](O)[C@H]1O)C(=O)O2
8.5 µM | CC[C@H](C)CCCCC(=O)N[C@@H](CCN)C(=O)N[C@H](C(=O)N[C@@H](CCN)C(=O)N[C@H]1CCNC(=O)[C@H]([C@@H](C)O)NC(=O)[C@H](CCN)NC(=O)[C@H](CCN)NC(=O)[C@H](CC(C)C)NC(=O)[C@@H](Cc2ccccc2)NC(=O)[C@H](CCN)NC1=O)[C@@H](C)O (X1-[Dab]T[Dab][Dab][Dab][dF]L[Dab][Dab]T; lactam 4-C)
> 50 µM | C[C@@]12C[C@@H](C3=C[C@H]4O[C@@H]3[C@H]3[C@@H]4[C@H]4OC(=O)[C@]3(O[C@@H]3O[C@H](CO)[C@@H](O)[C@H](O)[C@H]3O)[C@]3(C)CC[C@H]5C(=O)O[C@H](c6ccoc6)C[C@@]5(C)[C@H]43)OC(=O)[C@@H]1CC[C@]1(C)[C@H]2[C@H]2C=C[C@]1(O[C@@H]1O[C@H](CO)[C@@H](O)[C@H](O)[C@H]1O)C(=O)O2
